The record followed here is article PMC6063448, “Antimicrobial activity of linear lipopeptides derived from BP100 towards plant pathogens” (PLoS ONE, 2018).

Each structure is given as a SMILES string.

For one data set, the system named is tobacco leaves. Nature of the data set: Effect of peptide infiltration on tobacco leaves. The note with it: 100 μL infiltrated, after 48 h. In kind it is in vivo. As for the experimental part: BP100 and the 36 lipopeptides were evaluated for their effect upon infiltration on tobacco leaves as described previously. Peptide solutions of 50, 150 and 250 μM were infiltrated (100 μL) into the mesophylls of fully expanded tobacco leaves. Infiltrations were carried out in a single leaf, and for each peptide and dose, at least three leaves randomly distributed in different plants were inoculated. Control infiltrations with water (negative control) or melittin (positive control) at the same molar concentration were performed. The appearance of symptoms on the leaves was followed for 48 h after infiltration and measured as a lesion diameter.

Data set [1] has as its system Erwinia amylovora PMV6076. Nature of the data set: MIC, growth inhibition in microtiter plates (TSB). The note with it: Ea, 25°C, 48 h, OD 600 nm, lowest concentration with no growth, given as interval of tested concentrations, three replicates, experiment repeated twice. In kind it is cell-based. In outline: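 OD600 readout, hourly over 48 h at 25°C, 20 s shaking; TSB medium; inoculum from 10^8 CFU mL^-1 water suspension; triplicates, experiment run twice; MIC = lowest concentration showing no growth at endpoint.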

Data set [2] has as its system Pseudomonas syringae pv. actinidiae Psa3700.1.1. Nature of the data set: MIC, growth inhibition in microtiter plates (TSB). It counts as cell-based. The conditions noted are these: Psa, 25°C, 48 h, OD 600 nm, lowest concentration with no growth, given as interval of tested concentrations, three replicates, experiment repeated twice. In outline:
(§1)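 Agar-grown cells in water (10^8 CFU mL^-1 stock suspension) + serially diluted peptide (1 mM water stock) in TSB; 25°C, 48 h, OD600 hourly; no-growth endpoint gives MIC.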

For data set [3], the system named is Pseudomonas syringae pv. syringae EPS94. Put plainly: MIC, growth inhibition in microtiter plates (TSB). The conditions noted are these: Pss, 25°C, 48 h, OD 600 nm, lowest concentration with no growth, given as interval of tested concentrations, three replicates, experiment repeated twice. In kind it is cell-based. The method in brief: as §1
Data set [4] has as its system Xanthomonas arboricola pv. pruni CFBP5563. Put plainly: MIC, growth inhibition in microtiter plates (TSB). The conditions noted are these: Xap, 25°C, 48 h, OD 600 nm, lowest concentration with no growth, given as interval of tested concentrations, three replicates, experiment repeated twice. It counts as cell-based. The method in brief:
as §1

The test system of data set [5] is Xanthomonas axonopodis pv. vesicatoria 2133–2. Put plainly: MIC, growth inhibition in microtiter plates (TSB). It counts as cell-based. The note with it: Xav, 25°C, 48 h, OD 600 nm, lowest concentration with no growth, given as interval of tested concentrations, three replicates, experiment repeated twice. The method in brief:
as §1

Data set [6] relates to Xanthomonas fragariae Xf349-9A. Nature of the data set: MIC, growth inhibition in microtiter plates (TSB). In kind it is cell-based. The conditions noted are these: Xf, 25°C, 48 h, OD 600 nm, lowest concentration with no growth, given as interval of tested concentrations, three replicates, experiment repeated twice. In outline: as §1
For data set [7], the system named is Fusarium oxysporum f. sp. lycopersici FOL 3 race 2. Put plainly: MIC, antifungal growth inhibition in microtiter plates (PDB). The note with it: Fo, 22°C, seven days, OD 600 nm, lowest concentration with no growth, given as interval of tested concentrations, three replicates, experiment repeated twice. It counts as cell-based. In outline:
(§2)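 Conidial suspensions (10^3 conidia/mL P. expansum, 10^4 F. oxysporum) incubated with peptides in PDB with 0.003% chloramphenicol at 22 °C for seven days, OD600 read every 2 h. MIC is the lowest concentration with no growth at the end; triplicates, experiment repeated twice.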

For data set [8], the system named is Penicillium expansum EPS26. The data set is described as above. In kind it is cell-based. The note with it: Pe, 22°C, seven days, OD 600 nm, lowest concentration with no growth, given as interval of tested concentrations, three replicates, experiment repeated twice. In outline: as §2

Turning to `CC[C@H](C)[C@H](NC(=O)CN)C(=O)NCC(=O)N[C@@H](C)C(=O)N[C@H](C(=O)N[C@@H](CC(C)C)C(=O)N[C@@H](CCCCN)C(=O)N[C@H](C(=O)N[C@@H](CC(C)C)C(=O)N[C@H](C(=O)N[C@H](C(=O)NCC(=O)N[C@@H](CC(C)C)C(=O)N1CCC[C@H]1C(=O)N[C@@H](C)C(=O)N[C@@H](CC(C)C)C(=O)N[C@H](C(=O)N[C@@H](CO)C(=O)N[C@@H](Cc1c[nH]c2ccccc12)C(=O)N[C@H](C(=O)N[C@@H](CCCCN)C(=O)N[C@@H](CCCNC(=N)N)C(=O)N[C@@H](CCCCN)C(=O)N[C@@H](CCCNC(=N)N)C(=O)N[C@@H](CCC(N)=O)C(=O)N[C@@H](CCC(N)=O)C(N)=O)[C@@H](C)CC)[C@@H](C)CC)[C@@H](C)O)[C@@H](C)O)C(C)C)C(C)C` [melittin, reference compound], the “Diameter of necrotic area in infiltrated tobacco leaves” value in the data set on tobacco leaves (50 μM) is 1.1 cm; in the data set on tobacco leaves (250 μM), 2.3 cm.

As to `CCCCCCCCCCCC(=O)NCCCC[C@H](NC(=O)[C@H](CCCCN)NC(=O)[C@H](Cc1ccccc1)NC(=O)[C@H](CC(C)C)NC(=O)[C@H](CCCCN)NC(=O)[C@H](CCCCN)NC(C)=O)C(=O)N[C@H](C(=O)N[C@@H](CC(C)C)C(=O)N[C@@H](CCCCN)C(=O)N[C@@H](Cc1ccc(O)cc1)C(=O)N[C@@H](CC(C)C)C(N)=O)[C@@H](C)CC` [BP397, Ac-KKLFKK(COC11H23)ILKYL-NH2], the minimal inhibitory concentration (MIC) in data set [1] was more than 25 µM; in data set [2], more than 25 µM; in data set [3], more than 25 µM; in [4], 3.1 to 6.2 µM; in data set [5], 6.2 to 12.5 µM; in data set [6] it was 1.6 to 3.1 µM. The MIC in data set [7] lay in the range of 6.2 to 12.5 µM; in data set [8], 12.5 to 25 µM.

In the case of `CCCCCCCCCCCC(=O)NCCCC[C@H](NC(=O)[C@H](Cc1ccccc1)NC(=O)[C@H](CC(C)C)NC(=O)[C@H](CCCCN)NC(=O)[C@H](CCCCN)NC(C)=O)C(=O)N[C@@H](CCCCN)C(=O)N[C@H](C(=O)N[C@@H](CC(C)C)C(=O)N[C@@H](CCCCN)C(=O)N[C@@H](Cc1ccc(O)cc1)C(=O)N[C@@H](CC(C)C)C(N)=O)[C@@H](C)CC` [BP396, Ac-KKLFK(COC11H23)KILKYL-NH2], the minimal inhibitory concentration (MIC) in data set [1] was more than 25 µM; in [2] it was more than 25 µM; in data set [3], more than 25 µM; in [4] it was 1.6 to 3.1 µM; in [5] it was 3.1 to 6.2 µM; in data set [6], 1.6 to 3.1 µM. The minimum inhibitory concentration (MIC) in data set [7] is 6.2 to 12.5 µM; in data set [8], 12.5 to 25 µM.

As to `CCCCCCCCCCCC(=O)NCCCC[C@H](NC(=O)[C@H](CCCCN)NC(C)=O)C(=O)N[C@@H](CC(C)C)C(=O)N[C@@H](Cc1ccccc1)C(=O)N[C@@H](CCCCN)C(=O)N[C@@H](CCCCN)C(=O)N[C@H](C(=O)N[C@@H](CC(C)C)C(=O)N[C@@H](CCCCN)C(=O)N[C@@H](Cc1ccc(O)cc1)C(=O)N[C@@H](CC(C)C)C(N)=O)[C@@H](C)CC` [BP393, Ac-KK(COC11H23)LFKKILKYL-NH2], the MIC in data set [1] is 12.5 to 25 µM; in data set [2], 6.2 to 12.5 µM; in data set [3], 12.5 to 25 µM; in [4], 3.1 to 6.2 µM; in data set [5] it was 3.1 to 6.2 µM; in [6] it was 3.1 to 6.2 µM. Also, the values for the minimal inhibitory concentration (MIC) in data set [7] and in data set [8] were 1.6 to 3.1 µM and more than 25 µM, respectively.

With `CCCCCC(=O)NCCCC[C@H](NC(=O)[C@H](CC(C)C)NC(=O)[C@@H](NC(=O)[C@H](CCCCN)NC(=O)[C@H](CCCCN)NC(=O)[C@H](Cc1ccccc1)NC(=O)[C@H](CC(C)C)NC(=O)[C@H](CCCCN)NC(=O)[C@H](CCCCN)NC(C)=O)[C@@H](C)CC)C(=O)N[C@@H](Cc1ccc(O)cc1)C(=O)N[C@@H](CC(C)C)C(N)=O` [BP376, Ac-KKLFKKILK(COC5H11)YL-NH2], the minimum inhibitory concentration (MIC) in [1] lay in the range of 6.2 to 12.5 µM; in data set [2], 3.1 to 6.2 µM; in data set [3], 12.5 to 25 µM; in data set [4] it was 6.2 to 12.5 µM; in [5], 6.2 to 12.5 µM; in data set [6] it was 3.1 to 6.2 µM. For the same compound, the minimal inhibitory concentration (MIC) in data set [7] was in the range of 0.4 to 0.8 µM; in data set [8], 3.1 to 6.2 µM.

`CCCCCCCCCCCC(=O)NCCCC[C@H](NC(=O)[C@H](CCCCN)NC(=O)[C@H](CCCCN)NC(C)=O)C(=O)N[C@@H](Cc1ccccc1)C(=O)N[C@@H](CCCCN)C(=O)N[C@@H](CCCCN)C(=O)N[C@H](C(=O)N[C@@H](CC(C)C)C(=O)N[C@@H](CCCCN)C(=O)N[C@@H](Cc1ccc(O)cc1)C(=O)N[C@@H](CC(C)C)C(N)=O)[C@@H](C)CC` [BP394, Ac-KKK(COC11H23)FKKILKYL-NH2]: the minimal inhibitory concentration (MIC) in data set [1] is 12.5 to 25 µM; in data set [2] it was 6.2 to 12.5 µM; in data set [3], 6.2 to 12.5 µM; in data set [4] it was 1.6 to 3.1 µM; in [5] it was 1.6 to 3.1 µM; in data set [6], 0.8 to 1.6 µM. For the same compound, the minimal inhibitory concentration (MIC) was in the range of 6.2 to 12.5 µM in data set [7] and 12.5 to 25 µM in data set [8].

As to `CCCC(=O)N[C@@H](CCCCN)C(=O)N[C@@H](CCCCN)C(=O)N[C@@H](CC(C)C)C(=O)N[C@@H](Cc1ccccc1)C(=O)N[C@@H](CCCCN)C(=O)N[C@@H](CCCCN)C(=O)N[C@H](C(=O)N[C@@H](CC(C)C)C(=O)N[C@@H](CCCCN)C(=O)N[C@@H](Cc1ccc(O)cc1)C(=O)N[C@@H](CC(C)C)C(N)=O)[C@@H](C)CC` [BP379, C3H7CO-KKLFKKILKYL-NH2], the MIC in data set [1], in data set [2], in [3], in data set [4], in [5] and in data set [6] was 3.1 to 6.2 µM in each case. Also, the MIC in data set [7] was in the range of 3.1 to 6.2 µM; in data set [8], 6.2 to 12.5 µM.

As for `CCCCCCCCCCCC(=O)N[C@@H](CCCCN)C(=O)N[C@@H](CCCCN)C(=O)N[C@@H](CC(C)C)C(=O)N[C@@H](Cc1ccccc1)C(=O)N[C@@H](CCCCN)C(=O)N[C@@H](CCCCN)C(=O)N[C@H](C(=O)N[C@@H](CC(C)C)C(=O)N[C@@H](CCCCN)C(=O)N[C@@H](Cc1ccc(O)cc1)C(=O)N[C@@H](CC(C)C)C(N)=O)[C@@H](C)CC` [BP391, C11H23CO-KKLFKKILKYL-NH2], the MIC in data set [1] was more than 25 µM; in [2] it was more than 25 µM; in data set [3], more than 25 µM; in data set [4], 6.2 to 12.5 µM; in data set [5], 6.2 to 12.5 µM; in data set [6], 3.1 to 6.2 µM. For the same compound, the minimum inhibitory concentration (MIC) in data set [7] was 12.5 to 25 µM; in [8], more than 25 µM.

The MIC is the smallest concentration in the dilution series that meets the test's criterion for growth inhibition.
